Converted amounts (≈) assume the structure as drawn. Like-named read-outs stand apart in the source and are kept apart here.
What was measured:
[1] = system: C. glabrata 2586; experiment: FICI checkerboard, β-aescin with antifungal drugs; type: cell-based, Candida glabrata; details: combination with β-aescin
[2] = system: biofilms of C. glabrata DSM 1226 and two clinical isolates; design: method as in PMID 37508306; details: combination with β-AE; biofilms of three strains; ref [12]; cited from earlier work
[3] = system: C. glabrata 2586 clinical strain; experiment: MIC90/MFC, EUCAST broth microdilution; type: cell-based, Candida glabrata
[4] = system: C. glabrata 2586; experiment: Interaction of AABs (3 µM) with antifungal agents, modified checkerboard; type: cell-based, Candida glabrata
[5] = system: C. glabrata ATCC 90030; experiment: MIC90/MFC, EUCAST broth microdilution; type: cell-based, Candida glabrata; details: ATCC 90030
[6] = system: C. glabrata ATCC 90030; experiment: Interaction of AABs (3 µM) with antifungal agents, modified checkerboard; type: cell-based, Candida glabrata; details: for Multiplicity factor (MF) with C9: C9 3 µM, |MF| = MIC90 alone/MIC90 with AAB; for Multiplicity factor (MF) with C11: C11 3 µM; for Multiplicity factor (MF) with C13: C13 3 µM
[7] = system: C. glabrata 2853; experiment: as above; type: cell-based, Candida glabrata; details: for Multiplicity factor (MF) with C13: C13 3 µM
[8] = system: C. glabrata ATCC 90030; experiment: FICI checkerboard, β-aescin with antifungal drugs; type: cell-based, Candida glabrata; details: combination with β-aescin
[9] = system: C. glabrata 2853; experiment: FICI checkerboard, β-aescin with antifungal drugs; type: cell-based, Candida glabrata
[10] = system: C. glabrata 2853 clinical strain; experiment: MIC90/MFC, EUCAST broth microdilution; type: cell-based, Candida glabrata
[11] = Krafft temperature (TK); type: physicochemical
Protocol: CHNS elemental analysis was carried out by a Vario EL cube (Elementar, Germany) calibrated on acetanilide. Electrospray ionization mass spectroscopy (ESI-MS) (micrOTOF-Q instrument; Bruker Daltonics, Germany) allowed for the MS spectra to be obtained. The ESI-MS instrument was operated in the positive ion mode and calibrated with the Tunemix^TM mixture (Bruker Daltonics, Germany). The mass accuracy was better than 5 ppm. The obtained mass spectra were analyzed using DataAnalysis 3.4 software (Bruker Daltonics, Germany). ^1H NMR spectra were recorded on a Bruker AMX-500 spectrometer, using CDCl3 as a solvent. ^1H chemical shifts (in ppm) were calibrated to TMS as an internal reference. Melting points were determined using a Boetius melting point apparatus, while Krafft temperatures were determined according to the directions given in [47]. CMC is the minimum concentration above which micelles are formed in aqueous liquid. To obtain the CMC values, we used McGowan’s model. […] Molecular characteristic volumes (Vx) are found by the addition of the atomic characteristic volumes and the subtraction for the same factory (6.56 × 10^−6 m^3 mol^−1) for every covalent bond.

[12] = system: C. glabrata ATCC 90030 biofilm; experiment: Biofilm eradication on polystyrene, fluorescence microscopy (Syto9/PI); type: cell-based, Candida glabrata; details: Nakaseomyces glabratus, ATCC90030, 72 h, read-out: Biofilm Viability [%] 90030 Live
Protocol: (§1) C. glabrata biofilm eradication on polystyrene surfaces was assessed according to the following procedure: 1 mL of C. glabrata culture, 10^6 CFU/mL in RMPI 1640 MOPS-buffered medium, was pipetted into the wells of a 48-well adherent plate. Cultures were incubated at 37 °C for 72 h with shaking (400 RPM). […] Non-treated cells were used as the control. This experiment was carried out in triplicate. The analysis of the biofilm eradication of C. glabrata strains on polystyrene surfaces was performed using fluorescence microscopy (FM). For further information, see Section 4.12. below.
(§2) The 72 h biofilm of C. glabrata strains on polystyrene surfaces was stained on 48-well adherent plates with 1 µL of propidium iodide (Ex λ = 543 nm/Em λ = 617 nm) and 1 µL of SYTO9 (Ex λ = 488 nm/Em λ = 503 nm) for 30 min using a LIVE/DEAD BacLight Bacterial Viability Kit (Thermo Fisher Scientific, Waltham, MA USA). Imaging was performed using a fluorescence microscope (FM) BX51 (Olympus, Tokyo, Japan) equipped with an Orca Flash 40 camera (Hamamatsu, Hamamatsu City, Japan) and 10× objective Plan APO. Scale bar = 100 µm. Detailed computer qualitative and quantitative analyses of the obtained pictures were performed by estimating the coverage area on the polystyrene plate (the percentage of the area occupied by the fungal biofilm). The cell viability analysis was performed by calculating the fluorescence intensity of the dyes (Syto9/PI) used. The acquired images were processed and analyzed using Fiji/ImageJ software ver. 1.53c (NIH, Bethesda, MD, USA). First, maximum intensity projections (MIPs) were obtained from stacks of images. The areas of the binary images were transferred into the original live and dead channel MIP images. The mean fluorescence intensities of all detected objects per field of view were calculated using ImageJ’s Analyze Threshold function (Software: ImageJ version 1.53 from Softonic).

[13] = system: C. glabrata 2586 biofilm; experiment: as above; type: cell-based, Candida glabrata; details: Nakaseomyces glabratus, 2586BIOFILM, 72 h, read-out: Biofilm Viability [%] 2586 Live
Protocol: as §1, §2

[14] = system: C. glabrata 2853 biofilm; experiment: as above; type: cell-based, Candida glabrata; details: Nakaseomyces glabratus, 2853BIOFILM, 72 h, read-out: Biofilm Viability [%] 2853 Live
Protocol: as §1, §2

[15] = system: C. glabrata strains (ATCC 90030, 2586, 2853); experiment: MIC, statements for all tested strains together; type: cell-based, Candida glabrata; details: all the tested C. glabrata strains, AAB alone
[16] = system: Balb/3T3 mouse embryonic fibroblasts; experiment: Cell proliferation assay (MTT test); type: cell-based; details: 1 µm/mL; 24 h
Protocol: Balb/3T3 (ATCC CCL-163) mouse embryonic fibroblasts were cultured in DMEM medium supplemented with 10% fetal bovine serum, 1 mM L-glutamine, and a 1% penicillin/streptomycin solution and were used for our cytotoxicity studies. The cells were cultured at 37 °C and 5% CO2 until the cell density of 10^6 mL^−1 was obtained. Such cells were then seeded in 24-well tissue microplates (2 × 10^4 cells per well) and allowed to adhere overnight under the abovementioned conditions. Cytotoxicity tests were carried out on the cells prepared in this way.
The newly synthesized AABs (C9, C11, C13, and C15) were selected based on previous studies. They were analyzed at the concentrations of 0.25, 0.5, 1, 2, and 3 µM. […] The BALB-3T3 cells were treated with the prepared mixtures, dissolved in a complete cell culture medium, and then incubated for 24 h under the abovementioned conditions. Three independent replicates were performed for each combination of compounds.
The cytotoxic effect of the tested compounds in combination with β-AE was evaluated by measuring mitochondrial dehydrogenase activity using the MTT assay. After a 24 h incubation period, the medium supplemented with the 1mM MTT solution was added to each well. The cultures were continued for another 4 h under the conditions enriched with 5% CO2. After this time, the supernatant was collected, and MTT formazan was extracted from the cells using DMSO. The reaction was then stopped with Sörensen buffer (0.1 mol/L glycine; 0.1 mol/L NaCl; and pH 10.5). The percentage of cytotoxicity was calculated by comparing the absorbance values (λ = 560 nm) of the test sample to the control sample, which was untreated fibroblast cells. In the test performed, the negative control (C−) (sample not treated; PBS added) and positive control (C+) were fibroblast cells treated with 1% SDS [60].

[17] = Nakaseomyces glabratus, read-out: MFC
[18] = Nakaseomyces glabratus, read-out: MIC90
[19] = C9 at constant 3 µM, dilutions in µg/mL
[20] = C11 at constant 3 µM, dilutions in µg/mL
[21] = C13 at constant 3 µM, dilutions in µg/mL
[22] = C15 at constant 3 µM, dilutions in µg/mL

Q: With `CC(=O)N1CCN(c2ccc(OCC3COC(Cn4ccnc4)(c4ccc(Cl)cc4Cl)O3)cc2)CC1` (stereo not drawn) [Ketoconazole] as the molecule, how does the FICI [1] read?
A: 1.25

Q: And the FICI [2]?
A: ≤ 0.5

Q: What about the MFC [3, 17] of the same molecule?
A: 1020 µg/mL (≈ 1930 µM)

Q: What about the MIC90 [3, 18] of the same molecule?
A: 512 µg/mL (≈ 963 µM)

Q: What about the “Multiplicity factor (MF) with C9” value ([4]; C9 3 µM) of the same molecule?
A: 8

Q: And the “MIC90 of antimycotic combined with C9” value [4, 19]?
A: 64

Q: What about the “Multiplicity factor (MF) with C11” value ([4]; C11 3 µM) of the same molecule?
A: 16

Q: What about the “MIC90 of antimycotic combined with C11” value [4, 20] of the same molecule?
A: 32

Q: What about the “MIC90 of antimycotic combined with C13” value [4, 21] of the same molecule?
A: 16

Q: And the “Multiplicity factor (MF) with C15” value ([4]; C15 3 µM)?
A: 64

Q: And the “MIC90 of antimycotic combined with C15” value [4, 22]?
A: 8

Q: And the MFC ([5]; Nakaseomyces glabratus, ATCC90030, read-out: MFC)?
A: 1020 µg/mL (≈ 1930 µM)

Q: And the MIC90 ([5]; Nakaseomyces glabratus, ATCC90030, read-out: MIC90)?
A: 256 µg/mL (≈ 482 µM)

Q: What about the “Multiplicity factor (MF) with C9” value [6] of the same molecule?
A: 16 (16)

Q: What about the “Multiplicity factor (MF) with C9” value ([6]; listed as ketoconazole) of the same molecule?
A: 16

Q: What about the “MIC90 of antimycotic combined with C9” value [6, 19] of the same molecule?
A: 16 (16)

Q: What about the “Multiplicity factor (MF) with C11” value [6] of the same molecule?
A: 16 (16)

Q: What about the “Multiplicity factor (MF) with C11” value ([6]; listed as ketoconazole) of the same molecule?
A: 16

Q: What about the “MIC90 of antimycotic combined with C11” value [6, 20] of the same molecule?
A: 16 (16)

Q: And the “Multiplicity factor (MF) with C13” value [6]?
A: 16 (16)

Q: And the “Multiplicity factor (MF) with C13” value ([6]; listed as ketoconazole)?
A: 16

Q: What about the “MIC90 of antimycotic combined with C13” value [6, 21] of the same molecule?
A: 16 (16)

Q: And the “Multiplicity factor (MF) with C15” value ([6]; C15 3 µM)?
A: 64

Q: And the “MIC90 of antimycotic combined with C15” value [6, 22]?
A: 4

Q: And the “Multiplicity factor (MF) with C9” value ([7]; C9 3 µM)?
A: 1

Q: What about the “MIC90 of antimycotic combined with C9” value [7, 19] of the same molecule?
A: 4

Q: What about the “Multiplicity factor (MF) with C11” value ([7]; C11 3 µM) of the same molecule?
A: 1

Q: What about the “MIC90 of antimycotic combined with C11” value [7, 20] of the same molecule?
A: 4

Q: And the “Multiplicity factor (MF) with C13” value [7]?
A: 2 (2)

Q: And the “Multiplicity factor (MF) with C13” value ([7]; listed as ketoconazole)?
A: 2

Q: And the “MIC90 of antimycotic combined with C13” value [7, 21]?
A: 2 (2)

Q: What about the “Multiplicity factor (MF) with C15” value ([7]; C15 3 µM) of the same molecule?
A: 4

Q: What about the “MIC90 of antimycotic combined with C15” value [7, 22] of the same molecule?
A: 1

Q: What about the FICI [8] of the same molecule?
A: 2

Q: What about the “Type of interaction with β-AE (by FICI)” value [9] of the same molecule?
A: additive

Q: And the FICI ([9]; combination with β-aescin)?
A: 0.75

Q: And the MFC [10, 17]?
A: 1020 µg/mL (≈ 1930 µM)

Q: And the MIC90 [10, 18]?
A: 4 µg/mL (≈ 7.53 µM)

Q: For `CCCCCCCCCCCC(=O)N(C)CCC[N+](C)(C)CC(=O)[O-]` [C11], which “TK (Krafft temperature)” value [11] is on record?
A: ~5 °C

Q: What about the viability at 1 µM ([12]; AAB alone 1 μM) of the same molecule?
A: 32.6%

Q: What about the viability at 2 µM ([12]; AAB alone 2 μM) of the same molecule?
A: 3.96%

Q: What about the viability at 3 µM ([12]; AAB alone 3 μM) of the same molecule?
A: 2.14%

Q: What about the viability at 1 µM ([13]; AAB alone 1 μM) of the same molecule?
A: 4.54%

Q: What about the viability at 2 µM ([13]; AAB alone 2 μM) of the same molecule?
A: 4.45%

Q: What about the viability at 3 µM ([13]; AAB alone 3 μM) of the same molecule?
A: 3.49%

Q: And the viability at 1 µM ([14]; AAB alone 1 μM)?
A: 37.2%

Q: And the viability at 2 µM ([14]; AAB alone 2 μM)?
A: 3.06%

Q: And the viability at 3 µM ([14]; AAB alone 3 μM)?
A: 7.34%

Q: What about the MIC90 ([3]; AAB alone) of the same molecule?
A: >3 µM/mL

Q: What about the MIC ([15]; Nakaseomyces glabratus, ATCC90030, read-out: MIC converted to) of the same molecule?
A: 1070 µg/mL (≈ 3000 µM)

Q: What about the MIC [15] of the same molecule?
A: 3 µM/mL

Q: And the MIC90 ([5]; AAB alone)?
A: >3 µM/mL

Q: And the MIC90 ([10]; AAB alone)?
A: >3 µM/mL

Q: What about the Cytotoxicity level [16] of the same molecule?
A: 85%

Reference: publication PMC10932281, “A Combination of β-Aescin and Newly Synthesized Alkylamidobetaines as Modern Components Eradicating the Biofilms of Multidrug-Resistant Clinical Strains of Candida glabrata” (International Journal of Molecular Sciences, 2024)
